Assay [1] relates to T47D (PI3Kα-H1047R) cell line. Description: HTRF phospho-AKT(S473) cell assay in T47D cells. The class given is cell-based, human. An outline of the steps:
(§1)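 T47D (PI3Kα-H1047R; RPMI, 10% FBS, insulin) and SKBR3 (wild-type PI3Kα; McCoy's 5A, 10% FBS) cells treated 2 h at 37 °C with 12-point 1:3 dilutions, top 5 μM and 10 μM respectively, ≤0.5% DMSO. SKBR3 stimulated with 70 ng/ml PDGF-BB for the last 15 min; lysate pAKT(S473) by HTRF, IC50 from curves.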
(Time-resolved FRET reads energy transfer from a long-lived donor to a nearby acceptor.)

Assay [2] concerns SKBR3 (PI3Kα-Wild Type) cell line. Description: HTRF phospho-AKT(S473) cell assay in SKBR3 cells. The format is cell-based, human. An outline of the steps:
as §1

[3] abbreviates: Homo sapiens; HTRF phospho-AKT(S473), T47D (PI3Kα-H1047R) cells, 2 hours compound incubation.
Setting [4] is: Homo sapiens, SK-BR-3; HTRF phospho-AKT(S473), SKBR3 (PI3Kα-Wild Type) cells, 2 hours compound incubation, PDGF-BB stimulated.
The mark [5] stands for this setting: Homo sapiens; T47D (PI3Kα-H1047R) cells, HTRF phospho-AKT(S473), 2 hours compound incubation.
The mark [6] stands for this setting: Homo sapiens, SK-BR-3; SKBR3 (PI3Kα-Wild Type) cells, HTRF phospho-AKT(S473), 2 hours compound incubation, PDGF-BB stimulated.

For the molecule `Cc1cc([C@@H](C)Nc2ccc(Cl)nc2C(=O)NS(C)(=O)=O)c2nc(N3CCN(c4cnc(C)c(F)c4)CC3)n(C)c(=O)c2c1` [Compound 652, (R)-6-chloro-3-((1-(2-(4-(5-fluoro-6-methylpyridin-3-yl)piperazin-1-yl)-3,6-dimethyl-4-oxo-3,4-dihydroquinazolin-8-yl)ethyl)amino)-N-(methylsulfonyl) picolinamide], the IC50 is 250 to 500 nM in assay [1] (setting [3]) and 1000 to 5000 nM in assay [2] (setting [4]).
Regarding `Cc1cc([C@@H](C)Nc2ccc(Cl)nc2C(=O)NS(C)(=O)=O)c2nc(N3CCC(n4cc(F)c(C)n4)CC3)n(C)c(=O)c2c1` [Compound 492, (R)-6-chloro-3-((1-(2-(4-(4-fluoro-3-methyl-1H-pyrazol-1-yl)piperidin-1-yl)-3,6-dimethyl-4-oxo-3,4-dihydroquinazolin-8-yl)ethyl)amino)-N-(methylsulfonyl) picolinamide], the IC50 fell in the range of 250 to 500 nM in assay [1] (setting [3]) and 1000 to 5000 nM in assay [2] (setting [4]).
In the case of `Cc1cc([C@@H](C)Nc2ccc(Cl)nc2C(=O)NS(C)(=O)=O)c2nc(N3CCC(n4cc(C#N)cn4)CC3)n(C)c(=O)c2c1` [Compound 686, (R)-6-chloro-3-((1-(2-(4-(4-cyano-1H-pyrazol-1-yl)piperidin-1-yl)-3,6-dimethyl-4-oxo-3,4-dihydroquinazolin-8-yl)ethyl)amino)-N-(methylsulfonyl) picolinamide], the IC50 is < 250 nM in assay [1] (setting [3]) and 250 to 500 nM in assay [2] (setting [4]).
As to `Cc1cc([C@@H](C)Nc2ccc(Cl)nc2C(=O)NS(C)(=O)=O)c2nc(C3CCN(c4ccc(C#N)cn4)CC3)n(C)c(=O)c2c1` [Compound 186, (R)-6-chloro-3-((1-(2-(1-(5-cyanopyridin-2-yl)piperidin-4-yl)-3,6-dimethyl-4-oxo-3,4-dihydroquinazolin-8-yl)ethyl)amino)-N-(methylsulfonyl) picolinamide], the IC50 in assay [1] (setting [5]) was < 250 nM; in assay [2] (setting [6]), 1000 to 5000 nM.
`Cc1cc([C@@H](C)Nc2ccc(Cl)nc2C(=O)NS(C)(=O)=O)c2nc(N3CCC(c4nn(C)nc4C)CC3)n(C)c(=O)c2c1` [Compound 506, (R)-6-chloro-3-((1-(2-(4-(2,5-dimethyl-2H-1,2,3-triazol-4-yl)piperidin-1-yl)-3,6-dimethyl-4-oxo-3,4-dihydroquinazolin-8-yl)ethyl)amino)-N-(methylsulfonyl) picolinamide]: the IC50 in assay [1] (setting [3]) was < 250 nM; in assay [2] (setting [4]) it was 1000 to 5000 nM.
As to `Cc1cnc([C@@H]2CCCN(c3nc4c([C@@H](C)Nc5ccc(Cl)nc5C(=O)NS(C)(=O)=O)cc(C)cc4c(=O)n3C)C2)nc1` (relative stereo) [Compound 625, 6-chloro-3-(((R)-1-(3,6-dimethyl-2-((R*)-3-(5-methylpyrimidin-2-yl)piperidin-1-yl)-4-oxo-3,4-dihydroquinazolin-8-yl)ethyl)amino)-N-(methylsulfonyl) picolinamide], the IC50 was 250 to 500 nM in assay [1] (setting [3]) and ≥ 5000 nM in assay [2] (setting [4]).
On to `Cc1cc([C@@H](C)Nc2ccc(Cl)nc2C(=O)NS(C)(=O)=O)c2nc(N3CCC(c4cnn(C)c4)CC3)n(C)c(=O)c2c1` [Compound 181, (R)-6-chloro-3-((1-(3,6-dimethyl-2-(4-(1-methyl-1H-pyrazol-4-yl)piperidin-1-yl)-4-oxo-3,4-dihydroquinazolin-8-yl)ethyl)amino)-N-(methylsulfonyl) picolinamide], for which the IC50 is < 250 nM in assay [1] (setting [5]) and 1000 to 5000 nM in assay [2] (setting [6]).
Consider `COc1cccnc1-n1cc2c(n1)CN(c1nc3c([C@@H](C)Nc4ccc(Cl)nc4C(=O)NS(C)(=O)=O)cc(C)cc3c(=O)n1C)C2` [Compound 327, (R)-6-chloro-3-((1-(2-(2-(3-methoxypyridin-2-yl)-2,6-dihydropyrrolo[3,4-c]pyrazol-5(4H)-yl)-3,6-dimethyl-4-oxo-3,4-dihydroquinazolin-8-yl)ethyl)amino)-N-(methylsulfonyl) picolinamide], for which the IC50 in assay [1] (setting [5]) was in the range of 250 to 500 nM; in assay [2] (setting [6]) it was 1000 to 5000 nM.

The term IC50 denotes the concentration needed to halve the response being measured. Read a low IC50 as inhibition by little substance.

Source of the values: patent US12281122B1, “PI3K inhibitors” (Cogent Biosciences, Inc., priority 2023, dated 2025).
